Increase in growth and total lipid yield data for one compound are collected here from patent US20100317073A1, “MOLECULAR APPROACHES FOR THE OPTIMIZATION OF BIOFUEL PRODUCTION” (The Ohio State University Research Foundation, priority 2007, published 2010).

The experiment concerns Chlorella protothecoides. The experiment is described as follows: Growth of Chlorella protothecoides in glycerol supplemented media: growth and total lipid yield. It counts as cell-based. As to conditions: glycerol supplemented medium. The text has this: Note that Chlorella protothecoides growth is enhanced by glycerol; a byproduct of biodiesel.

Take `OCC(O)CO` [glycerol]: the increase in growth result was “at least 10 fold” and the total lipid yield entry is listed as “enhanced”.
